From ChEMBL document CHEMBL3124891, “Tetrahydroquinoline derivatives as potent and selective factor XIa inhibitors” (J Med Chem, 2014) come the findings set out here.

Each structure is given as a SMILES string.

A word on the Ki: it is the dissociation constant of the complex between target and ligand, obtained from inhibition or displacement.

In one data set the target is Coagulation factor XI (Homo sapiens, UniProt P03951). Kind of data set: Binding affinity to human factor 11a assessed as release of p-nitroaniline after 10 to 120 mins by spectrophotometric analysis.
Data set [1] deals with Oryctolagus cuniculus. Kind of data set: Toxicity in rabbit arteriovenous-shunt thrombosis model assessed as increase in bleeding time compound administered as single bolus dose followed by five continuous infusion dose. It is filed as organism-based. The following applies: in vivo, iv.
The target of a further data set is Plasma kallikrein (Homo sapiens, UniProt P03952). Kind of data set: Binding affinity to human plasma kallikrein assessed as release of p-nitroaniline after 10 to 120 mins by spectrophotometric analysis.
Data set [2] in a line: Binding affinity to New Zealand White rabbit thrombin assessed as release of p-nitroaniline after 10 to 120 mins by spectrophotometric analysis. Also on record: species or system Oryctolagus cuniculus.
Data set [3] deals with Plasma. Kind of data set: Anticoagulant activity in New Zealand White rabbit plasma assessed as concentration required to double activated partial thromboplastin time. It is filed as functional, Oryctolagus cuniculus.
Data set [4] relates to Oryctolagus cuniculus. Kind of data set: Antithrombotic activity in rabbit arteriovenous-shunt thrombosis model assessed as inhibition of clot formation compound administered as single bolus dose followed by five continuous infusion dose. The data set is classed as functional.
Another data set concerns the target Coagulation factor IX (Homo sapiens, UniProt P00740). Description: Binding affinity to human factor 9a assessed as release of p-nitroaniline after 10 to 120 mins by spectrophotometric analysis.
In data set [5] the test system is Plasma. Description: Anticoagulant activity in human plasma assessed as concentration required to inhibit double prothrombin time. It is filed as functional.
Data set [6] relates to Plasma. Kind of data set: Anticoagulant activity in human plasma assessed as concentration required to double activated partial thromboplastin time. It is filed as functional.
The target in data set [7] is T1, Coagulation factor X (Oryctolagus cuniculus, UniProt O19045).
T1 sequence (O19045 whole entry): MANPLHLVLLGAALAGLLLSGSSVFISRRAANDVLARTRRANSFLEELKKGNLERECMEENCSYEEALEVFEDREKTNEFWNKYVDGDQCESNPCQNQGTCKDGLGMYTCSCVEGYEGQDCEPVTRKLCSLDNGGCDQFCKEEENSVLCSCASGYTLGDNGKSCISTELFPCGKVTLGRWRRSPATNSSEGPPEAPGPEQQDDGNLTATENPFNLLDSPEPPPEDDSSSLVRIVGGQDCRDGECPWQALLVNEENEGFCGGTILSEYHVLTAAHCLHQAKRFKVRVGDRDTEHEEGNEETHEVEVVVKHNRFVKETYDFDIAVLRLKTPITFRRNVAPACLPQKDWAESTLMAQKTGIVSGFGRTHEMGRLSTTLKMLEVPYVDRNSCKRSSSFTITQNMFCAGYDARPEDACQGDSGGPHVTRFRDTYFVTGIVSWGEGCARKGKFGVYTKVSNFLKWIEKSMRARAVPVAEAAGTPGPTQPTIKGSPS
Kind of data set: Binding affinity to New Zealand White rabbit factor 10a assessed as release of p-nitroaniline after 10 to 120 mins by spectrophotometric analysis.

Data set [8] is described as follows: Binding affinity to New Zealand White rabbit plasma kallikrein assessed as release of p-nitroaniline after 10 to 120 mins by spectrophotometric analysis. The data set is classed as cell-free, Oryctolagus cuniculus.
The target in data set [9] is Coagulation factor X (Homo sapiens, UniProt P00742). Description: Binding affinity to human factor 10a assessed as release of p-nitroaniline after 10 to 120 mins by spectrophotometric analysis.
The target of data set [10] is Tissue-type plasminogen activator (Homo sapiens, UniProt P00750). Description: Binding affinity to human tPA assessed as release of p-nitroaniline after 10 to 120 mins by spectrophotometric analysis.
Data set [11] can be described thus: Binding affinity to New Zealand White rabbit factor 7a assessed as release of p-nitroaniline after 10 to 120 mins by spectrophotometric analysis. Details: species or system Oryctolagus cuniculus.
In data set [12] the target is Urokinase-type plasminogen activator (Homo sapiens, UniProt P00749). Description: Binding affinity to human urokinase assessed as release of p-nitroaniline after 10 to 120 mins by spectrophotometric analysis.
Data set [13] is described as follows: Binding affinity to New Zealand White rabbit factor 11a assessed as release of p-nitroaniline after 10 to 120 mins by spectrophotometric analysis. Also on record: species or system Oryctolagus cuniculus.
The target in another data set is Plasminogen (Homo sapiens, UniProt P00747). Kind of data set: Binding affinity to human plasmin assessed as release of p-nitroaniline after 10 to 120 mins by spectrophotometric analysis.
Data set [14] in a line: Binding affinity to human chymotrypsin assessed as release of p-nitroaniline after 10 to 120 mins by spectrophotometric analysis.
For a further data set, the target named is Prothrombin (Homo sapiens, UniProt P00734). Kind of data set: Binding affinity to human thrombin assessed as release of p-nitroaniline after 10 to 120 mins by spectrophotometric analysis.
Another data set addresses T2, Coagulation factor VII (Homo sapiens, UniProt P08709).
T2 sequence (P08709 whole entry): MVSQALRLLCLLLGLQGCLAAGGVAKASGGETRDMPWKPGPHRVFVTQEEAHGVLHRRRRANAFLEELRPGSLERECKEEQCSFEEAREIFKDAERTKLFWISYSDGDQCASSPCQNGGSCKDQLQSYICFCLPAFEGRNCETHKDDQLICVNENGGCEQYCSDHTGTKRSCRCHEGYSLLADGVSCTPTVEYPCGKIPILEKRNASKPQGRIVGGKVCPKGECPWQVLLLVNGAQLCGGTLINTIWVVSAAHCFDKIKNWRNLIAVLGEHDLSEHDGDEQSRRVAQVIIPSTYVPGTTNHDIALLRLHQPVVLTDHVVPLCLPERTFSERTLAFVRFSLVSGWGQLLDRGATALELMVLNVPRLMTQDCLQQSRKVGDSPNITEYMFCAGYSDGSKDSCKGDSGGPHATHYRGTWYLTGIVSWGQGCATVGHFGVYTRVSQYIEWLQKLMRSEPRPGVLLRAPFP
Description: Binding affinity to human factor 7a assessed as release of p-nitroaniline after 10 to 120 mins by spectrophotometric analysis.

For data set [15], the target named is Vitamin K-dependent protein C (Homo sapiens, UniProt P04070). Kind of data set: Binding affinity to human activated protein C assessed as release of p-nitroaniline after 10 to 120 mins by spectrophotometric analysis.
In the next data set the target is Trypsin (Homo sapiens, UniProt P07477+P07478+P35030). Kind of data set: Binding affinity to human trypsin assessed as release of p-nitroaniline after 10 to 120 mins by spectrophotometric analysis. It is filed as protein assay.

Sequence of Coagulation factor IX (P00740 47-191 limits assumed): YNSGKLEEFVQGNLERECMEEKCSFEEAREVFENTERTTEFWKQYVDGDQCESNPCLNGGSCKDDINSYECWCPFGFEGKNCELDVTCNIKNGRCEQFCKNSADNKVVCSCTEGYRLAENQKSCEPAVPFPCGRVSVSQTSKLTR
Sequence of Coagulation factor IX (P00740 227-461 limits assumed): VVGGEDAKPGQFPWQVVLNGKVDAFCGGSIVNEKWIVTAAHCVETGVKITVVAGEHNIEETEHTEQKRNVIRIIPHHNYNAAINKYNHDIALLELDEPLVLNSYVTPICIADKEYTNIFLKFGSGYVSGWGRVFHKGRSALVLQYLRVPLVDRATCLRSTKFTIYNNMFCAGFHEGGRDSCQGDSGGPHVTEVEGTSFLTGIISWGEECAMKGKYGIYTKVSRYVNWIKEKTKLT
Sequence of Coagulation factor X (Homo sapiens, UniProt P00742) (P00742 41-179 limits assumed): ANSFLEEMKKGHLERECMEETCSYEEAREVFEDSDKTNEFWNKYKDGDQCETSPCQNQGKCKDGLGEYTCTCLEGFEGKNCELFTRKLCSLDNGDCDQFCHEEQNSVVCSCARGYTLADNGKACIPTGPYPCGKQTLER
Sequence of Coagulation factor X (Homo sapiens, UniProt P00742) (P00742 235-488 limits assumed): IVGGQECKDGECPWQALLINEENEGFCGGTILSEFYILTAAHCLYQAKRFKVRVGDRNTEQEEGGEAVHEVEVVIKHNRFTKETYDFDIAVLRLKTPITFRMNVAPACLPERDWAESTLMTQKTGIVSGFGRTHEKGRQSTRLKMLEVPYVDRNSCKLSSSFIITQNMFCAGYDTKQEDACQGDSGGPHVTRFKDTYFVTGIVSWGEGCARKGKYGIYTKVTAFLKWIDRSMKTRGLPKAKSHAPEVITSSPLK
Sequence of Plasma kallikrein (P03952 20-390 limits assumed): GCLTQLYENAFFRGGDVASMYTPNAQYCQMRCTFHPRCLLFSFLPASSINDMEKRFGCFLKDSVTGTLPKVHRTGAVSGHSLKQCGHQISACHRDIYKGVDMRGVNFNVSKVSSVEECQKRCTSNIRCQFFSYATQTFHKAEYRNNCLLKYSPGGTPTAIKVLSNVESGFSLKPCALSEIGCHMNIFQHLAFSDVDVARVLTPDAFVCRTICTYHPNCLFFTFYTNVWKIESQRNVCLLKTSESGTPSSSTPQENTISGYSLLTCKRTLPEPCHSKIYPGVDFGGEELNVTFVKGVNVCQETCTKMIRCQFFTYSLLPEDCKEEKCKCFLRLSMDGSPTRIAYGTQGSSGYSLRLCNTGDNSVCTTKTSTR
Sequence of Plasma kallikrein (P03952 391-638 limits assumed): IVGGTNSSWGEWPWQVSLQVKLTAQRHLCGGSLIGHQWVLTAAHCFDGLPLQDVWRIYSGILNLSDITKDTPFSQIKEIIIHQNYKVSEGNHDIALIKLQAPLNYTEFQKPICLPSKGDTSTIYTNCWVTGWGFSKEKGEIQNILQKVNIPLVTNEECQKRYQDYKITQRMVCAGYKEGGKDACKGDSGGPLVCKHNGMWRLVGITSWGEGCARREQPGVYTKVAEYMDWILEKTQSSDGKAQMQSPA
Sequence of Coagulation factor XI (P03951 19-387 limits assumed): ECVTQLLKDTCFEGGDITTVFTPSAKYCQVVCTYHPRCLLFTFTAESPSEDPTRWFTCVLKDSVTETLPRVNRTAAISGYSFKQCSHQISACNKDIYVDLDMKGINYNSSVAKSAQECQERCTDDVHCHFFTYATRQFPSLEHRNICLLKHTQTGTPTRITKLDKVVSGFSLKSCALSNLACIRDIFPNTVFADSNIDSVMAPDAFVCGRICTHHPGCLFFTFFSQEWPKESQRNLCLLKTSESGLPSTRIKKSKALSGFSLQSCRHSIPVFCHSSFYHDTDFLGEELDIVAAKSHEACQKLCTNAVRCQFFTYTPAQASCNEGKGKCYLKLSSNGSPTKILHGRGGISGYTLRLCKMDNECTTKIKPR
Sequence of Coagulation factor XI (P03951 388-625 limits assumed): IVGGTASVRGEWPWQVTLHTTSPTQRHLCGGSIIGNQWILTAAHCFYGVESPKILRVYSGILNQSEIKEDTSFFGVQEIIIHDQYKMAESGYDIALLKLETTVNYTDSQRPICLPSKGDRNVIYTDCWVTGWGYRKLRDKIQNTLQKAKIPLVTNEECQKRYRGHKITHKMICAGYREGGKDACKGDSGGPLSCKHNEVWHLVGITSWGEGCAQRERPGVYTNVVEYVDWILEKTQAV
Sequence of Vitamin K-dependent protein C (P04070 43-197 limits assumed): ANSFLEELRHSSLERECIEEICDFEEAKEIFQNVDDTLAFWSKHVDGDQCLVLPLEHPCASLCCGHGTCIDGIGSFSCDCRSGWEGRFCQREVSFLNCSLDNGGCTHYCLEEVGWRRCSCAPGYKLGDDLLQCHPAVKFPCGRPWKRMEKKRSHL
Sequence of Vitamin K-dependent protein C (P04070 212-461 limits assumed): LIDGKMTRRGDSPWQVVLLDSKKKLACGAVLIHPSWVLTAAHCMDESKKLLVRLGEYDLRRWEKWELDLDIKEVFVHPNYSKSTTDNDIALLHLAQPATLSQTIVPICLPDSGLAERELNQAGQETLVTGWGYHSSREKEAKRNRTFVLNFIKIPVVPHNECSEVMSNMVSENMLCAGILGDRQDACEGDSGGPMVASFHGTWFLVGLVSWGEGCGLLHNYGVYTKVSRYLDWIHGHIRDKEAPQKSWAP
Sequence of Plasminogen (P00747 97-580 limits assumed): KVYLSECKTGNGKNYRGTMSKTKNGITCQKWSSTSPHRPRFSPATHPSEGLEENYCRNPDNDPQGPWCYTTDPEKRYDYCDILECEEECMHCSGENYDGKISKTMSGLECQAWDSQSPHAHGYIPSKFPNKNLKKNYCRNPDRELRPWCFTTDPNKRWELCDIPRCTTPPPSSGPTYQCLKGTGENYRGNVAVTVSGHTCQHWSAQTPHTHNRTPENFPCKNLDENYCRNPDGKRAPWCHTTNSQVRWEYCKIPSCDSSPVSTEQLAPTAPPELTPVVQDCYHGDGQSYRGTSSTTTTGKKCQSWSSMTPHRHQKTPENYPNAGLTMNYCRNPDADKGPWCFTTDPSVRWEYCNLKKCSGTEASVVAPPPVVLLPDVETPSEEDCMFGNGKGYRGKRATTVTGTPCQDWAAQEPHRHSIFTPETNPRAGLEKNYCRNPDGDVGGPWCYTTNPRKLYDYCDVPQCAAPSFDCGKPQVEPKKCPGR
Sequence of Plasminogen (P00747 581-810 limits assumed): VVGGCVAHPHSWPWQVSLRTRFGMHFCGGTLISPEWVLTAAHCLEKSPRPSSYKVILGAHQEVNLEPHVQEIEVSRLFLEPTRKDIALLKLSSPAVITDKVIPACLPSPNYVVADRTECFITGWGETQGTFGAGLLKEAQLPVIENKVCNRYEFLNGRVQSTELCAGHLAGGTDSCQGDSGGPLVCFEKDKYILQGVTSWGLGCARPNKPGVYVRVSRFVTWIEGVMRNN
Sequence of Tissue-type plasminogen activator (P00750 whole entry): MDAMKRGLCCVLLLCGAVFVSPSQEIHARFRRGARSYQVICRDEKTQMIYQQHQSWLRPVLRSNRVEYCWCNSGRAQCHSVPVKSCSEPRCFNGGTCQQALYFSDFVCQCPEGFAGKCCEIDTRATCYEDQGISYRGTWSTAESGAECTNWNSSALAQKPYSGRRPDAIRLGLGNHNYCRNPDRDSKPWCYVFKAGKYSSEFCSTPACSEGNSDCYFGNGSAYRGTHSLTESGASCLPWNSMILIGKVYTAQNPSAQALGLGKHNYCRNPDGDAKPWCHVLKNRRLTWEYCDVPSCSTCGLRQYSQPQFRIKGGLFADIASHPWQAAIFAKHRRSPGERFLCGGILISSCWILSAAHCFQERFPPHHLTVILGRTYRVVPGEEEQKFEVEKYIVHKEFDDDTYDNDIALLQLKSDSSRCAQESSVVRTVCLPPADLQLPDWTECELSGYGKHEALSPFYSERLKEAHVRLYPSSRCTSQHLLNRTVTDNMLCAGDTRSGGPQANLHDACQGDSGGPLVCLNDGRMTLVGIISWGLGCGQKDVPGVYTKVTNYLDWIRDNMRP

Regarding `CC(C)CC(=O)Nc1cc(-c2ccc(C(N)=O)cc2C(=O)O)cc(C2CC(C)(c3ccccc3)c3cc(C(=N)N)ccc3N2)c1` (single isomer, unassigned; enantiomer 2), the Ki on Coagulation factor XI is 0.2 nM; at Plasma kallikrein it was 4.6 nM; in data set [2], 7900 nM; on Coagulation factor IX, more than 20000 nM; at Coagulation factor X [7] it was 3200 nM; in data set [8] it was 4.6 nM. Also, the Ki at Coagulation factor X [9] was 340 nM; in [10] it was 1700 nM; in data set [11], 200 nM; in data set [12], 2100 nM; in data set [13], 0.42 nM; on Plasminogen, 910 nM. Moreover, the Ki in data set [14] amounted to 14000 nM; on Prothrombin it was 12600 nM; on Coagulation factor VII it was 629 nM; in data set [15], 73 nM; at Trypsin, 740 nM. In addition, in the data set with Oryctolagus cuniculus [1], the Activity result is “Non-toxic”. The EC with Plasma [3] was determined as 2400 nM; with Plasma [6], 2.2 µM. Besides, in the data set with Oryctolagus cuniculus [4], the ID50 worked out at 0.95 mg/kg/h. Also, the IC in the data set with Plasma [5] is more than 20 µM.
